The record followed here is patent US10344026B2, “Compositions and methods of targeting mutant K-ras” (NANTBIO, INC., priority 2017, dated 2019).

The structures appear in SMILES notation.

What all share (assay type): cell-based
The target in one assay is T1, K-Ras G12D (Homo sapiens, UniProt P01116, G12D).
T1 construct: expressed in transfected cells; host or cells: 293H cells
As to the kind of experiment: G-LISA Ras activation, 293H cells transfected with G12D mutant. Conditions: compound 1 hour. A digest of the protocol: (§1)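 Active Ras was quantified by G-LISA in lysates of 293H cells made the day after transfection with wild-type, G12D or G12V Ras plasmid (5 μg). Compounds were applied at 3.125-25 μM for 1 h; only the wild-type cells got a 2-min 100 ng/ml EGF pulse before lysis.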

The subject of assay [1] is Ishikawa (K-Ras wild type cell line). As to the kind of experiment: Viability assay (CellTiterBlue, 72 hr) Ishikawa. Conditions: Homo sapiens, GI50, CellTiterBlue, Ishikawa K-Ras wild-type. The gist of the method:
(§2)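 1000 cells/well, 18 hr pre-incubation at 37 °C; compound added from DMSO stock, 0.5% DMSO final; 72 hr; CellTiterBlue 3 hr, fluorescence Ex550/Em590; GI50 normalized to DMSO = 100%, 100 uM tamoxifen = 0% viability.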

In assay [2] the test system is U87-MG (K-Ras wild type cell line). As to the kind of experiment: Viability assay (CellTiterBlue, 72 hr) U87-MG. Conditions: Homo sapiens, U-87 MG, GI50, CellTiterBlue, U87-MG K-Ras wild-type. A digest of the protocol: as §2
In assay [3] the test system is HCC827 (K-Ras wild type cell line). In words: Viability assay (CellTiterBlue, 72 hr) HCC827. The following applies: Homo sapiens, GI50, CellTiterBlue, HCC827 K-Ras wild-type. A digest of the protocol: as §2
Assay [4] concerns A375 (K-Ras wild type cell line). In words: Viability assay (CellTiterBlue, 72 hr) A375. Conditions: Homo sapiens, A-375, GI50, CellTiterBlue. A digest of the protocol:
as §2

The next assay deals with Panc1-G12D. As to the kind of experiment: Viability assay (CellTiterBlue, 72 hr) Panc1. Conditions: Homo sapiens, PANC-1, GI50, CellTiterBlue, Panc1 K-Ras G12D, read-out: 72 hr Cell Viability Panc1 (G12D). A digest of the protocol:
as §2

For another assay, the system named is Panc10.05-G12D. In words: Viability assay (CellTiterBlue, 72 hr) Panc10.05. The following applies: Homo sapiens, Panc1005, GI50, CellTiterBlue, Panc10.05 K-Ras G12D, read-out: 72 hr Cell Viability Panc10.05 (G12D). The gist of the method: as §2
The next assay concerns HCT116-G31D. As to the kind of experiment: Viability assay (CellTiterBlue, 72 hr) HCT116. The following applies: Homo sapiens, HCT-116, GI50, CellTiterBlue, HCT116 K-Ras G13D, read-out: 72 hr Cell Viability HCT116 (G13D). A digest of the protocol: as §2
Assay [5] deals with phospho-ERK in HCC827 (Wild-type). In words: In-Cell Western phospho-ERK, HCC827. The following applies: Homo sapiens, 1 h; HCC827, one hour treatment; read-out: In-Cell Western HCC827 (Wild-type) Erk (P). The gist of the method:
(§3)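 Read-out: imaged cellular fluorescence after phospho-ERK/phospho-Akt immunostaining; EC50 derived. Cells plated 3000/well, 18 hr 37° C, compound 1 hr, 0.5% DMSO. Full-inhibition controls: 1 uM BEZ235 (pAkt), 1 uM MEK Inhibitor II (pERK).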

Assay [6] deals with phospho-Akt in HCC827 (Wild-type). In words: In-Cell Western phospho-Akt, HCC827. The following applies: Homo sapiens, 1 h; HCC827, one hour treatment; read-out: In-Cell Western HCC827 (Wild-type) Akt (P). The protocol:
In-cell phosphorylation assays for Erk and Akt were performed on several of the compounds and exemplary results are shown in Table 3 below using HCC827 and A375 cell lines for wild type K-Ras and Panc1 and Panc10.05 cell lines for G12D K-Ras mutants. Results are expressed in μM and corresponding structures are shown in FIGS. 2A-2G and Examples 1-152, above.
Cells are seeded in complete medium into black sided, clear-bottom 384-well microplates at 3000 cells/[…]/well. Plates are returned to 37° C. CO2 incubator for 18 hr. Drug is made as 200× in DMSO and diluted into medium to 10×. To each well is added 4 ul 10× test article or controls, and plates are returned to the incubator. Final assay DMSO concentration is 0.5%. After one hour, cells are fixed in formaldehyde, rinsed & permeabilized with triton X-100, and blocked with BSA/Goat serum blocking solution. Primary phospho-Akt and phospho-ERK antibodies are added and plates are incubated overnight at 4° C. Plates are rinsed with Tween-20 wash buffer and secondary antibody (Goat anti-rabbit, Thermofisher) is added. After 2 hours, plates are rinsed in Tween-20 wash buffer, and then PBS. Plates are imaged on the Celigo (Nexcelom) and cellular fluorescence is quantitated. Full inhibition of phospho-Akt is achieved with 1 uM BEZ235 (Sellekchem), while full inhibition of phospho-ERK is achieved with 1 uM MEK Inhibitor II Calbiochem). EC50 values are calculated using Graphpad Prism.

In assay [7] the test system is phospho-ERK in A375 (Wild-type). In words: In-Cell Western phospho-ERK, A375. Conditions: Homo sapiens, A-375, 1 h; A375, one hour treatment; read-out: In-Cell Western A375 (Wild-type) Erk (P). The gist of the method:
as §3

Assay [8] has as its system phospho-Akt in A375 (Wild-type). In words: In-Cell Western phospho-Akt, A375. The following applies: Homo sapiens, A-375, 1 h; A375, one hour treatment; read-out: In-Cell Western A375 (Wild-type) Akt (P). The gist of the method:
as §3

In assay [9] the test system is phospho-ERK in Panc1 (G12D). As to the kind of experiment: In-Cell Western phospho-ERK, Panc1. The following applies: Homo sapiens, PANC-1, 1 h; Panc1, one hour treatment; read-out: In-Cell Western Panc1 (G12D) Erk (P). The gist of the method: as §3
Assay [10] deals with phospho-Akt in Panc1 (G12D). As to the kind of experiment: In-Cell Western phospho-Akt, Panc1. Conditions: Homo sapiens, PANC-1, 1 h; Panc1, one hour treatment; read-out: In-Cell Western Panc1 (G12D) Akt (P). The gist of the method:
as §3

In assay [11] the test system is phospho-ERK in Panc10.05 (G12D). As to the kind of experiment: In-Cell Western phospho-ERK, Panc10.05. The following applies: Homo sapiens, Panc1005, 1 h; Panc10.05, one hour treatment; read-out: In-Cell Western Panc10.05 (G12D) Erk (P). The gist of the method:
as §3

In assay [12] the test system is phospho-Akt in Panc10.05 (G12D). In words: In-Cell Western phospho-Akt, Panc10.05. Conditions: Homo sapiens, Panc1005, 1 h; Panc10.05, one hour treatment; read-out: In-Cell Western Panc10.05 (G12D) Akt (P). The gist of the method:
as §3

In the next assay the target is T2, wild type K-Ras (Homo sapiens, UniProt P01116).
T2 construct: expressed in transfected cells; host or cells: 293H cells
T2 sequence (P01116 whole entry): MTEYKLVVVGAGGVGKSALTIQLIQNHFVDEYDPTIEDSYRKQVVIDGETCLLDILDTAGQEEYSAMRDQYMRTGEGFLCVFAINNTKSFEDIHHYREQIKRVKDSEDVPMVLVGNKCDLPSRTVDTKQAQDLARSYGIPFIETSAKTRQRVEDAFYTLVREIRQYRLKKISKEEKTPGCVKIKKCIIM
As to the kind of experiment: G-LISA Ras activation, 293H cells transfected with Ras wild-type, EGF stimulated. The following applies: compound 1 hour, then 100 ng/ml EGF 2 minutes. The gist of the method: as §1

T1 sequence (P01116 whole entry G12D): as the sequence (P01116 whole entry) above, with G12D counted along it

With `Cc1nc(C)c(C(=O)Nc2nc(-c3ccc4c(c3)CCC(=O)N4CCn3cncn3)cs2)o1` [Compound 108, N-(4-(1-(2-(1H-1,2,4-triazol-1-yl)ethyl)-2-oxo-1,2,3,4-tetrahydroquinolin-6-yl)thiazol-2-yl)-2,4-dimethyloxazole-5-carboxamide], the IC50 (against K-Ras G12D; in assay [1]; in assay [2]; in assay [3]; in [4]; in the assay with Panc1-G12D) was greater than 25 µM each time. Also, the IC50 in the assay with Panc10.05-G12D and in the assay with HCT116-G31D was greater than 25 µM each time. In addition, the EC50 in assay [5], in [6], in assay [7], in assay [8], in assay [9] and in assay [10] was greater than 25 µM throughout. Further, the EC50 is 21 µM in assay [11] and greater than 25 µM in assay [12].

For the compound `CCc1cc(C(=O)Nc2nc(-c3ccc4c(c3)CCC(=O)N4)cs2)n(C)n1` [Compound 24, 3-ethyl-1-methyl-N-(4-(2-oxo-1,2,3,4-tetrahydroquinolin-6-yl)thiazol-2-yl)-1H-pyrazole-5-carboxamide], the IC50 against wild type K-Ras is 7.6 µM; at K-Ras G12D, 9.9 µM; in assay [1] it was greater than 25 µM; in assay [2], greater than 25 µM; in assay [3], greater than 25 µM; in assay [4] it was greater than 25 µM. Besides, the IC50 in the assay on Panc1-G12D is 0.672 µM; with Panc10.05-G12D it was 2.76 µM; in the assay with HCT116-G31D, greater than 25 µM. Further, the EC50 in assay [5], in assay [6], in assay [7], in assay [9], in assay [10] and in [11] was greater than 25 µM in each case. The EC50 in assay [12] amounted to 13 µM.

As for `Cc1nn(Cc2ccccc2)c(C)c1C(=O)Nc1nc(-c2ccc3c(c2)CCC(=O)N3)cs1` [Compound 56, 1-benzyl-3,5-dimethyl-N-(4-(2-oxo-1,2,3,4-tetrahydroquinolin-6-yl)thiazol-2-yl)-1H-pyrazole-4-carboxamide], the IC50 against wild type K-Ras is 19.2 µM; against K-Ras G12D, 6.6 µM; in [1] it was 7 µM; in [2], 12 µM; in assay [3] it was 7 µM; in assay [4] it was 4 µM. Moreover, the IC50 worked out at 9 µM with Panc1-G12D, 7 µM in the assay on Panc10.05-G12D and 6 µM in the assay with HCT116-G31D. Further, the EC50 is 9 µM in assay [5]; greater than 25 µM in assay [6]; 16 µM in assay [7]; greater than 25 µM in [8]; 3 µM in assay [9]; 27 µM in assay [10]. For the same compound, the EC50 in [11] stood at 3 µM; in [12], 21 µM.

For `COCCN1C(=O)CCc2cc(-c3csc(NC(=O)c4c(C)nn(C(C)C)c4C)n3)ccc21` [Compound 118, 1-isopropyl-N-(4-(1-(2-methoxyethyl)-2-oxo-1,2,3,4-tetrahydroquinolin-6-yl)thiazol-2-yl)-3,5-dimethyl-1H-pyrazole-4-carboxamide], the IC50 against K-Ras G12D turned out to be 4.3 µM; in assay [1], 4 µM; in assay [2] it was 8 µM; in [3], 2 µM; in [4], 9 µM; in the assay on Panc1-G12D, 2 µM. For the same compound, the IC50 in the assay with Panc10.05-G12D was determined as 0.854 µM; with HCT116-G31D, 18 µM. The EC50 in assay [5] is 1.2 µM; in assay [6], greater than 25 µM; in assay [7], 10 µM; in assay [8], 23 µM; in [9] it was 6 µM; in [10] it was 26 µM. Besides, the EC50 was 0.969 µM in assay [11] and 2 µM in assay [12].

For the compound `Cc1nc(C)c(C(=O)Nc2nc(-c3ccc4c(c3)CCC(=O)N4Cc3cccnc3)cs2)o1` [Compound 70, 2,4-dimethyl-N-(4-(2-oxo-1-(pyridin-3-ylmethyl)-1,2,3,4-tetrahydroquinolin-6-yl)thiazol-2-yl)oxazole-5-carboxamide], the IC50 at wild type K-Ras is greater than 25 µM; against K-Ras G12D, 8.3 µM; in [1] it was 24 µM; in [3], greater than 25 µM; in the assay on Panc1-G12D it was 20 µM; with Panc10.05-G12D, 7 µM. Further, in the assay on HCT116-G31D, the IC50 was greater than 25 µM. The EC50 is 22 µM in [5]; 19 µM in [6]; 10 µM in assay [9]; 22 µM in [10]; 25 µM in [11]; greater than 25 µM in assay [12].

Consider `Cc1nc(C)c(C(=O)Nc2nc(-c3ccc4c(c3)CCC(=O)N4Cc3nnn[nH]3)cs2)o1` [Compound 109, N-(4-(1-((1H-tetrazol-5-yl)methyl)-2-oxo-1,2,3,4-tetrahydroquinolin-6-yl)thiazol-2-yl)-2,4-dimethyloxazole-5-carboxamide], for which the IC50 (in assay [1]; in assay [2]; in assay [3]; in assay [4]; in the assay with Panc1-G12D; in the assay on Panc10.05-G12D) was greater than 25 µM throughout. In addition, the IC50 with HCT116-G31D was greater than 25 µM. The EC50 in assay [5], in assay [6], in [7], in [8], in assay [9] and in [10] was greater than 25 µM throughout. Moreover, the EC50 in assay [11] and in assay [12] was greater than 25 µM each time.

Turning to `Cc1nc(C)c(C(=O)Nc2nc(-c3ccc4c(c3)CCC(=O)N4CC3CC3)cs2)o1` [Compound 68, N-(4-(1-(cyclopropylmethyl)-2-oxo-1,2,3,4-tetrahydroquinolin-6-yl)thiazol-2-yl)-2,4-dimethyloxazole-5-carboxamide], the IC50 was 16.7 µM on wild type K-Ras; 10.3 µM against K-Ras G12D; 3 µM in assay [1]; 5 µM in assay [3]; 8 µM in the assay with Panc1-G12D; 3 µM in the assay with Panc10.05-G12D. For the same compound, the IC50 in the assay on HCT116-G31D was found to be 5 µM. Also, the EC50 in assay [5] is 6 µM; in assay [6] it was 13 µM; in assay [9] it was 5 µM; in [10], 4 µM; in assay [11] it was 7 µM; in assay [12], 23 µM.
